# Source: PMC11836537, “An isofagomine analogue with an amidine group in the 1,6-position” (Royal Society Open Science, 2025)
# Like-named read-outs stand apart in the source and are kept apart here.
# How the values were obtained:
# [1] = cited from earlier work
# [2] = target: β-glucosidase; conditions: cited from earlier work
# [3] = target: T1, α-galactosidase (Coffea arabica, UniProt Q42656); design: key to inhibition: NI = no inhibition; conditions: α-galactosidase from green coffee beans, pH 6.8; cited from earlier work
# T1 sequence (Q42656 16-378): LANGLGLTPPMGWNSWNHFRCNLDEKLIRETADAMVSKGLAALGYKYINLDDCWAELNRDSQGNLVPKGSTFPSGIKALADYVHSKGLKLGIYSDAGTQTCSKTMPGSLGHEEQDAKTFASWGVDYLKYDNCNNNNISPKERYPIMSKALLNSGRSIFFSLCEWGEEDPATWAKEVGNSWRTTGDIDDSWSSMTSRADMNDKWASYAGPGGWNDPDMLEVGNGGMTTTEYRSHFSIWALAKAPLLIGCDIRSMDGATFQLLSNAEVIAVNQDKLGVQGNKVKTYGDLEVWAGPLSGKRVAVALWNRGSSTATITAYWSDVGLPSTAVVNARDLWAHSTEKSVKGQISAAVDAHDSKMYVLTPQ
# [4] = target: T2, β-galactosidase (Aspergillus oryzae, UniProt Q2UCU3); conditions: β-galactosidase from Aspergillus oryzae, pH 6.8; cited from earlier work
# T2 sequence (Q2UCU3 19-1005): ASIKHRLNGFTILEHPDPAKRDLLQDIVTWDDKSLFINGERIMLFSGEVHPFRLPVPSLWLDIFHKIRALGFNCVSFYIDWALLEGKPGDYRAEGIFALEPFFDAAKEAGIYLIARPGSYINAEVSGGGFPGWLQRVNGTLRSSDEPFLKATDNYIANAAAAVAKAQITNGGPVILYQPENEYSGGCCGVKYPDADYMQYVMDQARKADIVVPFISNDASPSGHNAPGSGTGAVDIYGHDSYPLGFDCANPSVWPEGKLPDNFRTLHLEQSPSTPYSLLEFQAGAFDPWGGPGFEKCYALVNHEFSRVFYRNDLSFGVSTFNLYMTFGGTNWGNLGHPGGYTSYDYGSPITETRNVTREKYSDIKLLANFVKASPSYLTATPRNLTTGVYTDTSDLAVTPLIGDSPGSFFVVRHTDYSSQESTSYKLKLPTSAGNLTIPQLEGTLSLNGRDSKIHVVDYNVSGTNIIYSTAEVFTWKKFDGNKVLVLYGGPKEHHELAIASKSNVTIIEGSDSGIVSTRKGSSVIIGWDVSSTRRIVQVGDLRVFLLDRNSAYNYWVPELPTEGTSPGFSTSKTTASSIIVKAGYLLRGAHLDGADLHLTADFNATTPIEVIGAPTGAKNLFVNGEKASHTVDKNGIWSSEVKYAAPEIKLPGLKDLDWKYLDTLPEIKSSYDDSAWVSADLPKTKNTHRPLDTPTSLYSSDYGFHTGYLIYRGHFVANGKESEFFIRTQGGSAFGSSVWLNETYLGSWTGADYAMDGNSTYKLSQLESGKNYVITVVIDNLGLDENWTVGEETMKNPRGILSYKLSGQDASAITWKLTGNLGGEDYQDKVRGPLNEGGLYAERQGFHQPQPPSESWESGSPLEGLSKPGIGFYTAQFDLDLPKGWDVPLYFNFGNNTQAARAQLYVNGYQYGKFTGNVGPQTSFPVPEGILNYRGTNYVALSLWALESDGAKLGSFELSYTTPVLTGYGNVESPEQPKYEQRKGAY
# [5] = target: T3, α-mannosidase (Canavalia ensiformis, UniProt C0HJB3); conditions: α-mannosidase from jack beans, pH 5.6; cited from earlier work
# T3 sequence (C0HJB3 1-981): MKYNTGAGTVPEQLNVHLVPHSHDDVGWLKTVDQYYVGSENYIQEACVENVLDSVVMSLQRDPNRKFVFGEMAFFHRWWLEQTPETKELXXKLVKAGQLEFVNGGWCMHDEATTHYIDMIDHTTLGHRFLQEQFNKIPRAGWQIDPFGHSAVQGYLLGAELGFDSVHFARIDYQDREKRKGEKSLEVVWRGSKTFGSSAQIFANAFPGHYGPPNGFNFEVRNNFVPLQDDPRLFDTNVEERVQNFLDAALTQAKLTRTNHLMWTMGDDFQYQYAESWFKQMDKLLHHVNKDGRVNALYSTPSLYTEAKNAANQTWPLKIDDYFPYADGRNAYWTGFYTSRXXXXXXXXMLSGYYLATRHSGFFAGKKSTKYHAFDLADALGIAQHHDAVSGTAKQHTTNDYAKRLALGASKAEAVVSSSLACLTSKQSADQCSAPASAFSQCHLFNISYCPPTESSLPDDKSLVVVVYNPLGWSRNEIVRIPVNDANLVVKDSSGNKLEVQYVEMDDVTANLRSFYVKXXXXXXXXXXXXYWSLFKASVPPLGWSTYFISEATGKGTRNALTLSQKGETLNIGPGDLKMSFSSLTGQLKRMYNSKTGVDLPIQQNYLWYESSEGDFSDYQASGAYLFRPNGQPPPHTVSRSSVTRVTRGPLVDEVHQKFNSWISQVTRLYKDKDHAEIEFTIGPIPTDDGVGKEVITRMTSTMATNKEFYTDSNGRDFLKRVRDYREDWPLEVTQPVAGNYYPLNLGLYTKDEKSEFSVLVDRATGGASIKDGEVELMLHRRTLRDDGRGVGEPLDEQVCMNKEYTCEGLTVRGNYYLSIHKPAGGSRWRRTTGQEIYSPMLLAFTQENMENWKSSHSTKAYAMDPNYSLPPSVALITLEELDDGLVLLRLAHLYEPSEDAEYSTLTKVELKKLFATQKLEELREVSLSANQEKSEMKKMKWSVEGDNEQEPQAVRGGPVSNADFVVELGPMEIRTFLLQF
# [6] = target: α-glucosidase; experiment: glycosidase inhibition, α-glucosidase; assay type: biochemical; conditions: α-glucosidase from Saccharomyces cerevisiae, pH 6.8
# Excerpt: (§1) The glycosidase inhibitory activities (IC50 (µM)) of amidines 5 and 6 on a panel of six glycosidases are presented in table 1 and compared with structurally related isofagomine (3) and amidine 4.
# [7] = target: β-glucosidase; experiment: glycosidase inhibition, β-glucosidase; assay type: biochemical; conditions: β-glucosidase from almonds, pH 6.8
# Excerpt: as §1
# [8] = target: T1, α-galactosidase; experiment: glycosidase inhibition, α-galactosidase; assay type: biochemical
# Excerpt: as §1
# [9] = target: T2, β-galactosidase; experiment: glycosidase inhibition, β-galactosidase (Aspergillus oryzae); assay type: biochemical
# Excerpt: as §1
# [10] = target: β-galactosidase (Escherichia coli, UniProt P00722); experiment: glycosidase inhibition, β-galactosidase (Escherichia coli); assay type: biochemical
# β-galactosidase (Escherichia coli, UniProt P00722), sequence (P00722 2-1024 limits assumed): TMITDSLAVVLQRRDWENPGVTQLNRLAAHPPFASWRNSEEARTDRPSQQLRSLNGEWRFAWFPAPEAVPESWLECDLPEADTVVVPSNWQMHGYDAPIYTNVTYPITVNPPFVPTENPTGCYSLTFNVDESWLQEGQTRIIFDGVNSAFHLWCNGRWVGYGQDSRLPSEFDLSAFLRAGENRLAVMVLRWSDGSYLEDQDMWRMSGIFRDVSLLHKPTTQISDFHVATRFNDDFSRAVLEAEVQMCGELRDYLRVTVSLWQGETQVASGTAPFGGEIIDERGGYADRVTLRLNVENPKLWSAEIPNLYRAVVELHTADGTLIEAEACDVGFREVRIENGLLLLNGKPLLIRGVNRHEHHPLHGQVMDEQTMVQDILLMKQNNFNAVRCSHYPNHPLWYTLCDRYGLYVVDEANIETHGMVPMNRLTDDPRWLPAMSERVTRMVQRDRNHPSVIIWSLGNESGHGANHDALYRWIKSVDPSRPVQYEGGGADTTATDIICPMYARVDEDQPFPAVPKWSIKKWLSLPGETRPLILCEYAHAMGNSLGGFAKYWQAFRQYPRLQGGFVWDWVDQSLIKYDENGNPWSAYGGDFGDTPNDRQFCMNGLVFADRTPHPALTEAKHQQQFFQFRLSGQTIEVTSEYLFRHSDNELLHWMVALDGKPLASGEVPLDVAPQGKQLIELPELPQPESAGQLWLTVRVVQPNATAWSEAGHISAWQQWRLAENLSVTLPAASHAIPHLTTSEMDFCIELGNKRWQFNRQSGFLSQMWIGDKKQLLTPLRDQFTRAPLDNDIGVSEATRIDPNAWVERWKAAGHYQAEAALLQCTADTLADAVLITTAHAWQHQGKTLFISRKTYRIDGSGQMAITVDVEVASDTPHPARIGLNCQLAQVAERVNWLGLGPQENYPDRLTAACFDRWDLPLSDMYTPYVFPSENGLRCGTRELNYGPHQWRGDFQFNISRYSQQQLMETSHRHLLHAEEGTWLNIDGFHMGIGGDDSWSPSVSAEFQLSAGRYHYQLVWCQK
# Excerpt: as §1
# [11] = target: T3, α-mannosidase; experiment: glycosidase inhibition, α-mannosidase; assay type: biochemical; conditions: α-mannosidase from jack beans, pH 5.6
# Excerpt: as §1
# [12] = tested on: all tested enzymes (panel of six glycosidases); experiment: glycosidase inhibition, whole panel of six glycosidases; assay type: biochemical; conditions: for glycosidase inhibition in words: all enzymes in the panel
# Excerpt: as §1
# [13] = pKa determination by NMR titration in D2O; assay type: physicochemical; conditions: for pH* at which degradation started: during NMR titration in D2O; for pKa: D2O
# Excerpt: The pKa values for azasugars have been determined by NMR spectroscopy in other studies. This methodology was also applied in this study to determine the pKa value of 6. […] The sigmoidal curve is missing points at high pH* values (greater than 11) because 6 started degrading at roughly pH* 10.5. Recording of both a ^1H NMR and ^13C HSQC spectra at each titration point allowed us to track the changes in chemical shifts at pH levels higher than where the degradation initially started. The pKa of amidine 5 was determined at even lower accuracy than for 6, because it started degrading at roughly pH* 9.4, where there is no indication of 5 being deprotonated.
# [14] = β-glucosidase from almonds, pH 6.8
compound,measurement,setting,value
"NC1=N[C@H](CO)[C@@H](O)[C@H](O)[C@H]1O [compound 2, ᴅ-glucoamidine]",pKa,[1],≥ 10.5
same,fold stronger base than 1,[1]; compared with 1-deoxynojirimycin (1),roughly 7900 fold
"OC[C@H]1CNC[C@@H](O)[C@@H]1O [compound 3, isofagomine]",Ki,[2]; almond β-glucosidase,0.11 µM
same,Ki,[2]; [14],0.11 µM
same,IC50,[3],> 2000 µM
same,IC50,[4],270 µM
same,IC50,[5],250 µM
N=C1NC[C@H](CO)[C@@H](O)[C@@H]1O [compound 4],Ki,[2]; [14],450 µM
same,inhibition,[3],"NI^g,i"
same,Ki,[4],17400 µM
same,Ki,[5],0.75 µM
N=C1NC[C@@H](O)[C@H](O)[C@H]1CO [compound 5],IC50,[6],> 50 µM
same,IC50,[7],> 50 µM
same,IC50,"[8]; α-galactosidase from green coffee beans, pH 6.8, read-out: IC50",> 50 µM
same,IC50,"[9]; β-galactosidase from Aspergillus oryzae, pH 6.8, read-out: IC50",> 50 µM
same,IC50,"[10]; β-galactosidase from Escherichia coli, pH 6.8, read-out: IC50",> 50 µM
same,IC50,[11],> 50 µM
same,glycosidase inhibition in words,[12],very poor inhibitor
same,IC50,"[12]; all tested enzymes, read-out: IC50 against all tested enzymes",> 50 µM
same,pH* at which degradation started,[13],~9.4
N=C1[C@H](CO)[C@@H](O)[C@H](O)CN1Cc1ccccc1 [compound 6],IC50,[6],> 50 µM
same,IC50,[7],> 50 µM
same,IC50,[8],> 50 µM
same,IC50,[9],> 50 µM
same,IC50,[10],> 50 µM
same,IC50,[11],> 50 µM
same,glycosidase inhibition in words,[12],very weak inhibitor
same,pKa,"[13]; inflection point of 2-Ha chemical shift versus pH* (pH measured in D2O), read-out: pKa*",> 11
same,pKa,"[13]; pKa* corrected with a correction factor, read-out: pKa (corrected)",> 10.6
same,pH* at which degradation started,[13],~10.5
